Results published in USRE49080E1, “Glycoside derivatives and uses thereof” (Novartis AG, priority 2009, dated 2022).

What was measured:
[1] = target: human sodium glucose co-transporter 2 (Homo sapiens (Human), UniProt P31639); assay: SGLT-2 assay: 14C-AMG uptake in CHO-hSGLT2 or HEK-hSGLT2 cells; format: cell-based; settings: n = 1-4, cells stably transfected with hSGLT2, read-out: SGLT2 IC50 nM (n = 1-4)
Protocol: These cell lines transport 14 C-labelled alpha-methyl-glucopyranoside (14 C-AMG, Amersham) into the interior of the cell in sodium-dependent manner.
(§1) The SGLT-2 assay is carried out as follows: CHO-hSGLT2 cells are cultivated in Ham's F12 Medium (BioWhittaker) with 10% foetal calf serum and 250 μg/mL zeocin (Invitrogen), and HEK293-hSGLT2 cells are cultivated in DMEM medium with 10% foetal calf serum and 250 μg/mL zeocin (Invitrogen). The cells are detached from the culture flasks by washing twice with PBS and subsequently treating with trypsin/EDTA. After the addition of cell culture medium the cells are centrifuged, resuspended in culture medium and counted in a Casy cell counter. Then 40,000 cells per well are seeded into a white, 96-well plate coated with poly-D-lysine and incubated overnight at 37° C., 5% CO2. The cells are washed twice with 250 μl of assay buffer (Hanks Balanced Salt Solution, 137 mM NaCl, 5.4 mM KCl, 2.8 mM CaCl2, 1.2 mM MgSO4 and 10 mM HEPES (pH 7.4), 50 μg/mL of gentamycin). 250 μl of assay buffer and 5 μl of test compound are then added to each well and the plate is incubated for a further 15 minutes in the incubator. 5 μl of 10% DMSO are used as the negative control. The reaction is started by adding 5 μl of 14 C-AMG (0.05 μCi) to each well. After 2 hours' incubation at 37° C., 5% CO2, the cells are washed again with 250 μl of PBS […] and then lysed by the addition of 25 μl of 0.1 N NaOH (5 min. at 37° C.). 200 μl of MicroScint20 (Packard) are added to each well and incubation is continued for a further 20 min at 37° C. After this incubation the radioactivity of the 14 C-AMG absorbed is measured in a Topcount (Packard) using a 14 C scintillation program.

human SGLT1 = human SGLT1 (Homo sapiens (Human), UniProt P13866); assay: SGLT1 assay: analogous test with hSGLT1 cDNA expressed in CHO-K1 or HEK293 cells; format: cell-based; settings: n = 1-4; 14C-AMG uptake, cells expressing hSGLT1
Protocol: as §1
To determine the selectivity with respect to human SGLT1 an analogous test is set up in which the cDNA for hSGLTI (Genbank Ace. No. NM000343) instead of hSGLT2 cDNA is expressed in CHO-K1 or HEK293 cells.

Sequence of human SGLT1 (P13866 whole entry): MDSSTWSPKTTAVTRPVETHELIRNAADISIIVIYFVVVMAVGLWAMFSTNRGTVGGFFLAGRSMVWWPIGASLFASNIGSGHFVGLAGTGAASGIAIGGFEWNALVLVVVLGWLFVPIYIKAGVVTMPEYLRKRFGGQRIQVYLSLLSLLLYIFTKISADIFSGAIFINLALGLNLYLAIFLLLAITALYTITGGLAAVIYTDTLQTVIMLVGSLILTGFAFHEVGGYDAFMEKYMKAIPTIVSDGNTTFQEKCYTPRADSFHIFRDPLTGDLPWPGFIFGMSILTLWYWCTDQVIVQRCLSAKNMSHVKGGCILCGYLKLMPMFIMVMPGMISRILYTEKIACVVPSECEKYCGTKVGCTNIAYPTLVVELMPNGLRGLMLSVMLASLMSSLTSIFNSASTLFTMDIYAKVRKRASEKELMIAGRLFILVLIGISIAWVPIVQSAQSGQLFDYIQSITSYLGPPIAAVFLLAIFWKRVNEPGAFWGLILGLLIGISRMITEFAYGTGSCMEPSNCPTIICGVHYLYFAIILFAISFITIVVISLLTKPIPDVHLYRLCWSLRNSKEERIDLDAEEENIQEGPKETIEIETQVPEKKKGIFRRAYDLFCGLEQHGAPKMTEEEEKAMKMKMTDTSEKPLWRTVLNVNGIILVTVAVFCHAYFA
Sequence of human sodium glucose co-transporter 2 (P31639 whole entry): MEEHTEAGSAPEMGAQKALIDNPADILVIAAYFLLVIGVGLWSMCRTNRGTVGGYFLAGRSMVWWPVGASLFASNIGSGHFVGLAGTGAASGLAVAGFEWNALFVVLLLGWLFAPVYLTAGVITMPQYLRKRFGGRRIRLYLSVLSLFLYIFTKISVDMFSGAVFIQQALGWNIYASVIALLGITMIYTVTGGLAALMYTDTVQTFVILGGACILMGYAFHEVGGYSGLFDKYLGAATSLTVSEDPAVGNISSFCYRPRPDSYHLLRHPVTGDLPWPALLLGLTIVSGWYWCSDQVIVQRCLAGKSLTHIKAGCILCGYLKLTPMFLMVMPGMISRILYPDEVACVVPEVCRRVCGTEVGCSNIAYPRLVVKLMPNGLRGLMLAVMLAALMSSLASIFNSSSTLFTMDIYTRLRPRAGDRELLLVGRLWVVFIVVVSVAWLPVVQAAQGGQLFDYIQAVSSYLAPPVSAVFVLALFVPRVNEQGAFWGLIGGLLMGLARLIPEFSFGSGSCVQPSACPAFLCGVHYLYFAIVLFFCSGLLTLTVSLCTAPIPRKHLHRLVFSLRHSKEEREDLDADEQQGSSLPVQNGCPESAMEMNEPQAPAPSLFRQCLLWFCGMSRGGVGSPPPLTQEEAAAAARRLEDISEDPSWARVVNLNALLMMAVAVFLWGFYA

Q: Which results are given for `CC(C)c1ccc([C@@H]2O[C@H](CO)[C@@H](O)[C@H](O)[C@H]2O)cc1Cc1ccc2c(c1)NCCO2` [Example 69, (2S,3R,4R,5S,6R)-2-[3-(3,4-Dihydro-2H-benzo[1,4]oxazin-6-ylmethyl)-4-isopropyl-phenyl]-6-hydroxymethyl-tetrahydro-pyran-3,4,5-triol]?
A: IC50 [1]: 1.2 nM; IC50 (human SGLT1): 37 nM

Q: Which IC50 [1] does the source give for `O=C1COc2cc(Cc3cc([C@@H]4O[C@H](CO)[C@@H](O)[C@H](O)[C@H]4O)ccc3Cl)ccc2N1` [Example 42, 7-[2-Chloro-5-((2S,3R,4R,5S,6R)-3,4,5-trihydroxy-6-hydroxymethyl-tetrahydro-pyran-2-yl)-benzyl]-4H-benzo[1,4]oxazin-3-one] here?
A: 0.35 nM

Q: What about the IC50 (human SGLT1) of the same molecule?
A: 105 nM

Q: Which IC50 [1] does the source give for `COc1ccc([C@@H]2O[C@H](CO)[C@@H](O)[C@H](O)[C@H]2O)cc1Cc1ccc2c(c1)OCCO2` [Example 25, (2S,3R,4R,5S,6R)-2-[3-(2,3-Dihydro-benzo[1,4]dioxin-6-ylmethyl)-4-methoxy-phenyl]-6-hydroxymethyl-tetrahydro-pyran-3,4,5-triol] here?
A: 1.5 nM

Q: And the IC50 (human SGLT1)?
A: 40 nM

Q: For `COc1ccc([C@@H]2O[C@H](CO)[C@@H](O)[C@H](O)[C@H]2O)cc1Cc1ccc2c(c1)NCCO2` [Example 31, (2S,3R,4R,5S,6R)-2-[3-(3,4-Dihydro-2H-benzo[1,4]oxazin-6-ylmethyl)-4-methoxy-phenyl]-6-hydroxymethyl-tetrahydro-pyran-3,4,5-triol], which IC50 [1] is on record?
A: 1.2 nM

Q: And the IC50 (human SGLT1)?
A: 404 nM

Q: Which IC50 [1] does the source give for `OC[C@H]1O[C@@H](c2ccc(Cl)c(Cc3ccc4c(c3)C3(CCO4)CC3)c2)[C@H](O)[C@@H](O)[C@@H]1O` [Example 29, (2S,3R,4R,5S,6R)-2-[4-Chloro-3-(4,4-spiro-cyclopropyl-chroman-6-ylmethyl)-phenyl]-6-hydroxymethyl-tetrahydro-pyran-3,4,5-triol] here?
A: 84.5 nM

Q: And the IC50 (human SGLT1)?
A: 7000 nM

Q: `COc1ccc([C@@H]2O[C@H](CO)[C@@H](O)[C@H](O)[C@H]2O)cc1Cc1ccc2c(c1)OCC(=O)N2` [Example 43, 7-[2-Methoxy-5-((2S,3R,4R,5S,6R)-3,4,5-trihydroxy-6-hydroxymethyl-tetrahydro-pyran-2-yl)-benzyl]-4H-benzo[1,4]oxazin-3-one] was tested. Which IC50 [1] did it give?
A: 3.9 nM

Q: What about the IC50 (human SGLT1) of the same molecule?
A: 59 nM

Q: What does the source list for `O=C1COc2ccc(Cc3cc([C@@H]4O[C@H](CO)[C@@H](O)[C@H](O)[C@H]4O)ccc3Cl)cc2N1` [Example 47, 6-(2-chloro-5-((2S,3R,4R,5S,6R)-3,4,5-trihydroxy-6-(hydroxymethyl)tetrahydro-2H-pyran-2-yl)benzyl)-2H-benzo[b][1,4]oxazin-3(4H)-one]?
A: IC50 [1]: 16.5 nM; IC50 (human SGLT1): > 3200 nM

Q: `OC[C@H]1O[C@@H](c2ccc(Cl)c(Cc3ccc4c(c3)NCCO4)c2)[C@H](O)[C@@H](O)[C@@H]1O` [Example 8, (2S,3R,4R,5S,6R)-2-[4-Chloro-3-(3,4-dihydro-2H-benzo[1,4]oxazin-6-ylmethyl)-phenyl]-6-hydroxymethyl-tetrahydro-pyran-3,4,5-triol] was tested. Which IC50 [1] did it give?
A: 0.25 nM

Q: And the IC50 (human SGLT1)?
A: 725 nM

Q: `COc1ccc([C@@H]2O[C@H](CO)[C@@H](O)[C@H](O)[C@H]2O)cc1Cc1ccc2c(c1)CCC1(CCC1)O2` [Example 41, (2S,3R,4R,5S,6R)-2-[4-methoxy-3-(spiro[chromane-2,1′-cyclobutane]-6-ylmethyl)phenyl]-6-(hydroxymethyl)tetrahydropyran-3,4,5-triol] was tested. Which IC50 [1] did it give?
A: 16.2 nM

Q: What about the IC50 (human SGLT1) of the same molecule?
A: 1620 nM
